Experimental data reported in US20090209525A1, “ENABLING METHODS TO IDENTIFY ALLOSTERIC MODULATORS OF RECEPTOR ACTIVITY” (priority 2006, published 2009).
Where a chain is given by its changes, count along the chain named. Like-named read-outs stand apart in the source and are kept apart here.

What was measured:
rat M1 L102A receptor = molecular target: T1, rat M1 L102A receptor (Rattus norvegicus, UniProt P08482, L102A); assay: R-SAT functional assay, L102A mutant; assay type: cell-based; settings: for Eff (%) / Shift / EC50: Table 3; for Eff (%): maximum response, normalized; for Shift: EC50 L102A divided by EC50 wild-type
T1 construct: expressed in transfected cells; host or cells: NIH-3T3
T1 sequence (P08482 1-460 L102A): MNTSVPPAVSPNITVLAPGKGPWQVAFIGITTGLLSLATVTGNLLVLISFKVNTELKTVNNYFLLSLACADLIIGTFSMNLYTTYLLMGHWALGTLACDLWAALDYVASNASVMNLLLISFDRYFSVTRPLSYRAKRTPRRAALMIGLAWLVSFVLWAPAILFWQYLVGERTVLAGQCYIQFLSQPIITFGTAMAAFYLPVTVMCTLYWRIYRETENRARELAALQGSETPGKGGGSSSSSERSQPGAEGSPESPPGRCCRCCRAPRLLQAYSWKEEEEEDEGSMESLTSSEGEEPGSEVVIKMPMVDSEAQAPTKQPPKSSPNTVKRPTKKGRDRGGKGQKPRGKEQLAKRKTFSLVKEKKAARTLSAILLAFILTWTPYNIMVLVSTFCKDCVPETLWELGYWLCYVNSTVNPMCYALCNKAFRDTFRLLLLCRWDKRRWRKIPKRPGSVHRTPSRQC
Procedure: (§1) Cells are co-transfected for 18 h with DMEM containing 0.08 micrograms/ml of an expression vector for the expression of the mutant receptor and 0.3 micrograms/ml pSI-Bgal (Promega, Madison Wis.), and 0.5% v/v Polyfect (Qiagen, Valencia Calif.), as recommended by the manufacturer. On day three, the medium is replaced with DMEM containing 1% PSG, 0.5% calf serum, 2% cyto-sf3 (Kemp Biotechnologies, Frederick, Md.), and varying concentrations of the compounds to be tested. Cells are grown in a humidified atmosphere with 5% ambient CO2 for 5 days. The media is removed from the plates, and beta-galactosidase activity is measured by the addition of o-nitrophenyl -d-galactopyranoside in phosphate-buffered saline with 5% Nonidet P-40. […] The following equation is fitted to the data using GraphPad Prism software (San Diego, Calif.):
(§2) NIH-3T3 cells were grown in 96-well tissue culture plates to 70 to 80% confluence in Dulbecco's modified essential media (DMEM) supplemented with 100 units/ml penicillin, 100 micrograms/ml streptomycin, 0.3 mg/ml L-glutamine (1% PSG, GIBCO) and 10% calf serum (Sigma-Aldrich). Cells were transfected for 18 h with DMEM containing 0.08 micrograms/ml receptor DNA and 0.3 micrograms/ml pSI-Bgal (Promega, Madison Wis.), 0.5% v/v Polyfect (Qiagen, Valencia Calif.). Medium was replaced with DMEM containing 1% PSG, 0.5% calf serum, 2% cyto-sf3 (Kemp Biotechnologies, Frederick, Md.), and varying concentrations of ligand. […] Cells were grown in a humidified atmosphere with 5% ambient CO2 for 5 days. Medium was removed from the plates, and beta-galactosidase activity was measured by the addition of o-nitrophenyl -d-galactopyranoside in phosphate-buffered saline with 5% Nonidet P-40.

[1] = molecular target: T2, CHO-hM1 cell membranes (muscarinic M1 receptor) (Homo sapiens, UniProt P11229); assay: ^3H-NMS dissociation rate assay; assay type: binding; settings: for koff: read-out: koff of ^3H-NMS in the presence of the ligand
T2 construct: expressed in transfected cells; host or cells: CHO-hM1
T2 sequence (P11229 1-460): T1 sequence (P08482 1-460 L102A) with V5A, A102L, S254T, S309P, K320R, G337A, V413I
Procedure: Approximately 10 μg protein was added per well in the assay.

[2] = molecular target: T3, rat M1 wild-type receptors (Rattus norvegicus, UniProt P08482); assay: R-SAT functional assay, wild-type receptor; assay type: cell-based; settings: for EC50: read-out: pEC50 (converted); for Shift: EC50 divided by EC50 for wild-type (reference)
T3 construct: expressed in transfected cells
T3 sequence (P08482 1-460): T1 sequence (P08482 1-460 L102A) with A102L
Procedure: as §1, §2
Receptor Selection and Amplification (R-SAT™) Assays: R-SAT™ functional assays were carried out as follows. NIH-3T3 cells were grown in 96-well tissue culture plates to 70 to 80% confluence in Dulbecco's modified essential media (DMEM) supplemented with 100 units/ml penicillin, 100 micrograms/ml streptomycin, 0.3 mg/ml L-glutamine (1% PSG, GIBCO) and 10% calf serum (Sigma-Aldrich). Cells were transfected for 18 h with DMEM containing 0.08 micrograms/ml receptor DNA and 0.3 micrograms/ml pSI-Bgal (Promega, Madison Wis.), 0.5% v/v Polyfect (Qiagen, Valencia Calif.). The transfected cells were frozen away. Cells were thawed and added to 96 well plates with DMEM containing 1% PSG, 0.5% calf serum, 2% cyto-sf3 (Kemp Biotechnologies, Frederick, Md.), and varying concentrations of ligand.
In an effort to further characterize monoamine modulators, we used a panel of mutant muscarininc M1 receptors to analyze the activity and potency of orthosteric modulators and various allosteric modulators at those receptors.

[3] = molecular target: T4, CHO cell membranes expressing the muscarinic M1 receptor (Homo sapiens, UniProt P11229); assay: Equilibrium ^3H-NMS binding at 2 nM and 10 nM ^3H-NMS
T4 construct: expressed in transfected cells; host or cells: CHO
T4 sequence (P11229 1-460): T1 sequence (P08482 1-460 L102A) with V5A, A102L, S254T, S309P, K320R, G337A, V413I

[4] = Table 2, maximum response relative to maximum response of carbachol
[5] = Table 3, M1 WT, maximum response, normalized
[6] = Table 4, M1 wild type, maximum response relative to xanomeline
[7] = Table 10, M1 Wild-Type, NA = non-active
[8] = Table 10, M1 Wild-Type, maximum response relative to carbachol
[9] = atropine-induced dissociation, result in words
[10] = ^3H-NMS 2 nM and 10 nM, result in words

| Structure (SMILES) | Eff (%) (rat M1 L102A receptor; L102A) | effect on dissociation rate of ^3H-NMS [1] | koff [1] [s⁻¹] | Eff (%) [2, 4] [%] | EC50 ([2]; Table 2, mean +/- S.E.M., n=5) [nM] | Shift ([2]; Table 3) | Eff (%) [2, 5] [%] | EC50 ([2]; Table 3, M1 WT) [nM] | % Eff [2, 6] [%] | EC50 [2, 7] [nM] | % Eff [2, 8] [%] | displacement of ^3H-NMS [3] | decrease in potency relative to wild-type (rat M1 L102A receptor; R-SAT, L102A) [fold] | Shift (rat M1 L102A receptor) | EC50 (rat M1 L102A receptor; L102A) [nM] | effect on dissociation rate of ^3H-NMS [1, 9] | EC50 ([2]; Table 4, M1 wild type) [nM] | displacement of ^3H-NMS [3, 10] |
| --- | --- | --- | --- | --- | --- | --- | --- | --- | --- | --- | --- | --- | --- | --- | --- | --- | --- | --- |
| CCCCC1CCN(CCCC(=O)c2ccccc2C)CC1 [AC-42, 4-n-butyl-1-[4-(2-methylphenyl)-4-oxo-1-butyl] piperidine hydrogen chloride] | 6 ± 0% | significantly retarded | 0.00175 | 48 ± 11 | 158 | 1 | 47 ± 5 | 158 | 24 | 200 | 56 | complete displacement of ^3H-NMS was not observed |  |  |  |  |  |  |
| CCCCC1CCN(CCCN2C(=O)COc3cc(F)ccc32)CC1 [AC-260584, 4-[3-(4-Butyl-piperidin-1-yl)-propyl]-7-fluoro-4H-benzo [1,4]oxazin-3-one] | 37 ± 7% |  | 0.0015 | 89 ± 11 | 15.8 | 1 | 89 ± 6 | 15.8 | 59 | 25.1 | 109 |  | 30 | 30 | 501 | significantly retarded | 25.1 | completely displace |
| Clc1ccc2c(c1)N=C(N1CCNCC1)c1ccccc1N2 [NDMC, 8-chloro-11-(1-piperazinyl)-5H-dibenzo [b,e] [1,4] diazepine] | >35 ± — % |  | 0.00338 | 79 ± 14 | 50.1 | 1 | 78 ± 4 | 50.1 | 43 | 100 | 93 |  |  | >100 | > 10000 | did not significantly retard | 31.6 | completely displace |
